Molecular target: Csm6 (Mtb Csm6) (Mycobacterium tuberculosis, UniProt P71635)
Sequence (P71635 34-415): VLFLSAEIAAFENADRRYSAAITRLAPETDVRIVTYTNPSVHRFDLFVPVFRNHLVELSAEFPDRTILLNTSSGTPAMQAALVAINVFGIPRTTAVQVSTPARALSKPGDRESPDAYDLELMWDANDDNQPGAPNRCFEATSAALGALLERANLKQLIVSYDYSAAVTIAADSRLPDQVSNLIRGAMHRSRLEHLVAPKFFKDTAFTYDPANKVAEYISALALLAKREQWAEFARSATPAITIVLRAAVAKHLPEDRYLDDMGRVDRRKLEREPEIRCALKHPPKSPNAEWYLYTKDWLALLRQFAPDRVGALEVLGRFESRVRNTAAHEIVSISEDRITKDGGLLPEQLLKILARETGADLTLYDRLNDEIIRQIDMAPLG

Nc1ncnc2c1ncn2[C@@H]1O[C@@H]2COP(=O)(O)O[C@H]3[C@@H](O)[C@H](n4cnc5c(N)ncnc54)O[C@@H]3COP(=O)(O)O[C@H]3[C@@H](O)[C@H](n4cnc5c(N)ncnc54)O[C@@H]3COP(=O)(O)O[C@H]3[C@@H](O)[C@H](n4cnc5c(N)ncnc54)O[C@@H]3COP(=O)(O)O[C@H]3[C@@H](O)[C@H](n4cnc5c(N)ncnc54)O[C@@H]3COP(=O)(O)O[C@H]3[C@@H](O)[C@H](n4cnc5c(N)ncnc54)O[C@@H]3COP(=O)(O)O[C@H]2[C@H]1O [cA6, cyclic hexa-adenylate]
gel-based cleavage assay of Cy5-labelled 24 nt ssRNA: the presence of cA6 significantly enhances the nuclease activity of Csm6

Source: paper PMC12214007, “CARF-dependent preferential RNA cleavage by Csm6 increases drug susceptibility of mycobacteria” (Nucleic Acids Research, 2025)
